The values below come from patent US20160297830A1, “NOVEL COMPOUNDS USEFUL FOR THE TREATMENT OF BACTERIAL INFECTIOUS DISEASES” (GALAPAGOS NV, priority 2013, published 2016).

≈ marks a conversion by molar mass, not a printed value.

The subject of the test is H. influenza Hi4 efflux pump KO. Description: Antibacterial activity assay (MIC), H. influenza Hi4. The class given is cell-based.
`COC[C@@H]1[C@@H](O)[C@@H]2[C@H]3C=C[C@@H]4[C@@H](COC)C(=O)O[C@H]([C@H](O)COC)[C@H](C)/C=C(\C)[C@@]24O[C@H]3[C@@H]1OC(=O)c1cc(Br)c(Br)[nH]1` [Compound 34, 8-O-4,5-Dibromo-1H-pyrrole-2′-carbonylbranimycin] registered an MIC of 8 µg/mL (≈ 10.9 µM).

`COC[C@@H]1[C@@H](O)[C@@H]2[C@H]3C=C[C@@H]4[C@@H](COC)C(=O)O[C@H]([C@H](O)COC)[C@H](C)/C=C(\C)[C@@]24O[C@H]3[C@@H]1OC(=O)c1cc(Br)c(Br)o1` [Compound 36, 8-O-4,5-Dibromofurane-2′-carbonylbranimycin] yielded an MIC of 32 µg/mL (≈ 43.6 µM).

Compound `COC[C@@H]1[C@@H](O)[C@@H]2[C@H]3C=C[C@@H]4[C@@H](COC)C(=O)O[C@H]([C@H](O)COC)[C@H](C)/C=C(\C)[C@@]24O[C@H]3[C@@H]1OC(=O)c1cc(Br)c(F)[nH]1` [Compound 37, 8-O-4-Bromo-5-Fluoro-1H-pyrrole-2′-carbonylbranimycin] showed an MIC of 16 µg/mL (≈ 23.8 µM).

`COC[C@@H]1[C@@H](O)[C@@H]2[C@H]3C=C[C@@H]4[C@@H](COC)C(=O)O[C@H]([C@H](O)COC)[C@H](C)/C=C(\C)[C@@]24O[C@H]3[C@@H]1OC(=O)c1cc(F)c(F)[nH]1` [Compound 38, 8-O-4,5-Difluoro-1H-pyrrole-2′-carbonylbranimycin] had an MIC of 16 µg/mL (≈ 26.2 µM).

In the case of `COC[C@@H]1[C@@H](O)[C@@H]2[C@H]3C=C[C@@H]4[C@@H](COC)C(=O)O[C@H]([C@H](O)COC)[C@H](C)/C=C(\C)[C@@]24O[C@H]3[C@@H]1OC(=O)c1cc(C)n[nH]1` [Compound 39, 8-O-5-Methyl-1H-Pyrazole-3′-carbonylbranimycin], the MIC was over 64 µg/mL.

The compound `COCC(=NO)[C@H]1OC(=O)[C@H](COC)[C@H]2C=C[C@H]3[C@H]4O[C@]2(/C(C)=C/[C@H]1C)[C@@H]3[C@H](O)[C@@H](COC)[C@H]4OC(=O)c1cc(F)c[nH]1` [Compound 40, 18-Deoxy-18-oximino-8-O-4-Fluoro-1H-pyrrole-2′-carbonylbranimycin] showed an MIC of 2 µg/mL (≈ 3.3 µM).

Compound `COCC(=NO)[C@H]1OC(=O)[C@H](COC)[C@H]2C=C[C@H]3[C@H]4O[C@]2(/C(C)=C/[C@H]1C)[C@@H]3[C@H](O)[C@@H](COC)[C@H]4OC(=O)c1cc(Cl)c[nH]1` [Compound 41, 18-Deoxy-18-oximino-8-O-4-Chloro-1H-pyrrole-2′-carbonylbranimycin] returned an MIC of 8 µg/mL (≈ 12.8 µM).

Turning to `COCC(=NOC(C)=O)[C@H]1OC(=O)[C@H](COC)[C@H]2C=C[C@H]3[C@H]4O[C@]2(/C(C)=C/[C@H]1C)[C@@H]3[C@H](O)[C@@H](COC)[C@H]4OC(=O)c1cc(Cl)c[nH]1` [Compound 42, 18-Acetylimino-18-deoxy-8-O-4-Chloro-1H-pyrrole-2′-carbonylbranimycin], the MIC was determined as 4 µg/mL (≈ 6.01 µM).

For `CO[C@H]1C[C@H]2C=C[C@H]3[C@H]4O[C@]2(/C(C)=C/[C@@H](C)[C@@H]([C@@H](C)O)OC1=O)[C@@H]3[C@H](O)[C@@H](C)[C@H]4OC(=O)c1ccc[nH]1` [Nargenicin A1, reference compound], the MIC is 0.5 µg/mL (≈ 0.97 µM).

On to `COC[C@@H]1[C@@H](O)[C@@H]2[C@H]3C=C[C@@H]4C[C@H](O)C(=O)O[C@H]([C@H](O)COC)[C@H](C)/C=C(\C)[C@@]24O[C@H]3[C@@H]1OC(=O)c1ccc[nH]1` [Nargenicin B1, reference compound], for which the MIC is 8 µg/mL (≈ 14.2 µM).

For the compound `CO[C@H]1C[C@H]2C=C[C@H]3[C@H]4O[C@]2(/C(C)=C/[C@@H](C)[C@@H]([C@@H](C)O)OC1=O)[C@@H]3[C@H](O)[C@@H](C)[C@H]4O` [Nodusmicin, reference compound], the MIC was 2 µg/mL (≈ 4.73 µM).
